# Measurements reported in patent US11638424B2, “Mosquito attractant formulations and uses thereof” (priority 2017, dated 2023).
# Assays:
# A. gambiae sensu lato [1] = experiment: Persistency (landing, probing and initiating feeding) within 5 min on cell-free meals; assay type: in vivo
# Procedure: (§1) Fifty mosquitoes were isolated in three separate cages (8 cm internal diameter×10 cm in height) covered with netting, and fed on 1 ml of control RBCs, hRBCs or giRBCs, respectively. […] For each group, the number of fully fed mosquitoes compared to unfed controls was immediately recorded. In another set of feeding experiments, serum or a 0.9% physiological saline solution (NaCl, pH 7.4), either with or without 10 μM HMBPP, were offered to mosquitoes during a 5 min feeding window, and the number of fed mosquitoes recorded every minute for each cage separately. In the saline experiment, an additional treatment of 10 μM IPP in NaCl was included.
# RBCs = experiment: Volatile collection (SPME) and GC-MS analysis of RBC headspace; assay type: cell-based, Human; settings: 10 μM HMBPP, FIGS. 2C and D
# Procedure: RBCs (1 ml) were transferred to 4 ml glass vials closed with auto-sampler screw caps, and equilibrated in a thermostat at 38° C. for 15 min. Then, 2.5 μl of HMBPP or Nanopure water were added to the RBCs samples (final concentration: 10 μM HMBPP per sample). Volatiles were collected from the headspace using solid phase micro-extraction (SPME; Supelco, Bellmonte, Pa., USA) (M. J. Yang, el al., J. Chem. Educ., 74, 1130-1132 (1997) and A. K. Borg-Karlson and R. Mozuraitis, Naturforsch., C. 51, 599-602 (1996)). […] Electron ionisation mass spectra were determined at 70 eV with the ion source kept at 230° C. and mass spectra were obtained at mass to charge ratio (m/z) 29-400. […] A similar protocol was used for the quantification of CO2, with the mass spectral data and GC retention times being compared with emission from frozen CO2. The relative amounts of CO2 in arbitrary units were determined from the areas of the respective chromatogram peaks using single ion display mode at m/z 44±0.5 Da. The amounts of identified compounds were quantified by the use of extracted ion chromatograms, since they are very minute. […] The estimations were based on the very same quantifications given in ‘arbitrary area units’. […]
# A. gambiae sensu lato [2] = experiment: Feeding proportion experiments (90 s on membrane feeder); assay type: in vivo
# Procedure: Mosquitoes used in this study were from the laboratory colony of A. gambiae sensu lato (Keele line, University of Glasgow), which was produced by balanced interbreeding of four A. gambiae s.s. strains (H. Hurd, et al. Evolution, 59, 2560-2572 (2005)). Larvae were reared under standard insectary conditions (27±1° C., 70% humidity, 12 h light: 12 h dark cycle) and fed on TetraMin fish flakes (Tetra ltd., Germany). Pupae were transferred into holding cages for emergence. Emerged adults were fed ad libitum on 5% glucose solution, supplemented with 0.05% (w/v) 4-aminobenzoic acid (PABA, Sigma-Aldrich), through soaked filters on top of the 2 ml tubes and with soaked filter pads inside cages. Red blood cells (RBCs) were washed with Roswell Park Memorial Institute (RPMI) medium and stored in RPMI at 50% haematocrit at 4° C. until use. […]
# as §1, with “In the saline experiment, an additional treatment of 10 μM IPP in NaCl was included.” left out
smiles,measurement,setting,value
"C/C(=C\COP(=O)(O)OP(=O)(O)O)CO [HMBPP, (E)-4-hydroxy-3-methyl-but-2-enyl pyrophosphate]",persistency / phagostimulatory effect in physiological salt solution,"A. gambiae sensu lato [1]; 0.9% NaCl, 10 μM, 5 min, FIG. 1F",generated a similar effect
same,percent persistency within 5 min (females that landed and initiated probing and feeding),"A. gambiae sensu lato [1]; serum with 10 μM HMBPP (serum alone 20%), FIG. 1E",Approximately 80%
same,increase in aldehydes (C8-C10:al) in headspace of hRBCs compared to RBCs,RBCs,1.7-to-5.2 fold
same,"increase in monoterpenes (α- and ß-pinene, limonene) in headspace of hRBCs compared to RBCs",RBCs,1.2-to-1.6 fold
same,proportion of mosquitoes feeding over a range of HMBPP concentrations,"A. gambiae sensu lato [2]; RBCs supplemented with different concentrations of HMBPP, below 10 μM",substantially lower doses are sufficient to trigger enhanced mosquito feeding
same,proportion of females fed,"A. gambiae sensu lato [2]; hRBCs (10 μM HMBPP) vs RBCs, 90 s feeding, FIG. 1B",more than doubled
